Source: US9540373B2, “Substituted spirocycles” (Boehringer Ingelheim International GmbH, priority 2014, dated 2017)
Like-named read-outs stand apart in the source and are kept apart here.

What was measured:
[1] = system: neutrophil elastase activity in U937 cells; test: Determination of neutrophil elastase activity in U937 cytosolic lysate preparation after incubation with test compound; type: cell-based; conditions: Homo sapiens, U-937; U937 cells incubated 48 hours with compound, NE activity in lysate; read-out: Reduction of NE-activity in U937 cells IC50
Protocol: Determination of Neutrophil Elastase Activity in U937 Cytosolic Lysate Preparation after Incubation with Test Compound Materials:
24 well Nunclon cell culture plates (No. 142475) and 96 well plates (No. 267245) were from Nunc.
Dimethylsulfoxid (DMSO) was from Sigma (Prod. No. D8418). Nonidet-P40 (NP40) was from USBiological (Prod. No. N3500)
Substrate, specific for Neutrophil elastase, was from Bachem (MeOSuc-Ala-Ala-Pro-Val-AMC; Prod. No. I-1270).
Human neutrophil elastase was from Calbiochem (Prod. No. 324681)
Tris-buffer (100 mM Tris; 1M NaCl; pH 7.5)
Tris-buffer+HSA 0.1%; Human Serum Albumin from Calbiochem (Cat#. 126658)
Serine-protease buffer (20 mM Tris; 100 mM NaCl; pH 7.5)+0.1% HSA
Serine protease lysis buffer: 20 mM Tris-HCl; 100 mM NaCl pH 7.5; +0.2% Nonidet-P40;
PBS: phosphate buffered saline, without Ca and Mg, from Gibco
U937 from ECACC (Cat. No. 85011440) cultured in suspension at 37° C. and 5% CO2.
Cell density: 0.2-1 Mio. Cells/ml.
Medium: RPMI1640 GlutaMAX (No. 61870) with 10% FCS from Gibco
Cell Seeding and Treatment:
Compounds in 100% DMSO were diluted in Medium (−FCS) with 10% DMSO and further diluted according to the experiment planned.
20 μl of the compound solution was transferred in the respective wells of the 24 well plate and diluted with 2 ml cell suspension/well containing 1×10^5 cells/ml (final concentration of DMSO=0.1%). Compound dilution factor=100
Compounds (up to 7 concentrations) were tested in triplicates with 3 wells for the DMSO 0.1% control, incubated for 48 hours without medium change at 37° C., 5% CO2 and 95% relative humidity.
Cell Harvesting and Cell Lysate:
Transfer the cell suspension in 2 ml 96 well assay block. Separate cells from medium by centrifugation (500×g; 10 min; RT); discard the supernatant. Resuspend in 1 ml PBS; centrifugation (500×g; 10 min; RT); wash cells twice with PBS. Add 80 μl Serine protease lysis buffer (ice cold) to the cell pellet; resuspend the pellet and store on ice for 10 minutes. Remove debris by centrifugation at 1000×g for 10 min at 4° C. Transfer 80-100 μl lysate supernatant in 96 well plate and store immediately at −80° C.
Neutrophil Elastase Activity Assay:
Frozen lysates were thaw at 37° C. for 10 minutes and stored on ice. Protein content was determined with Bradford protein assay. Lysates were diluted to 0.2-0.5 mg/ml protein in serine protease buffer+HSA.
Standard: NE (100 μg/ml stock solution in Tris-buffer; stored at −80° C.) was diluted in Tris-buffer+HSA to 750 ng/ml, and further serially diluted 1:2 for the standard curve. Buffer, blank, standard and lysate samples were transferred into 384 well plate
Blank: 5 μl Tris-buffer+10 μl Serine protease buffer+5 μl Substrate
Standard: 5 μl Tris-buffer+10 μl NE (diff. conc.)+5 μl Substrate
Lysate: 5 μl Tris-buffer+10 μl Lysat+5 μl Substrate
The increase in fluorescence (Ex360 nm/Em 460 nm) is determined after 30 minutes with a Molecular Device Spectramax M5 Fluorescence Reader. The result is interpolated to ng/mg lysate protein using excel formula functions. Percent inhibition in the compound-treated lysate samples is calculated relative to the DMSO-treated control-sample (100−(compound-sample*100)/control-sample)
A test compound will give values between 0% and 100% inhibition of neutrophil elastase. IC50 is calculated using Graphpad Prism; nonlinear fitting (log(inhibitor) vs. response—Variable slope). The IC50 value is interpolated as the concentration of test compound which leads to a neutrophil elastase activity reduction of 50% (relative to the DMSO-treated control).

[2] = target: recombinant human DPPI (Cathepsin C) (Homo sapiens (Human), UniProt P53634); test: Inhibition of human DPPI (Cathepsin C); type: biochemical
Chain of recombinant human DPPI (Cathepsin C) (P53634 231-394): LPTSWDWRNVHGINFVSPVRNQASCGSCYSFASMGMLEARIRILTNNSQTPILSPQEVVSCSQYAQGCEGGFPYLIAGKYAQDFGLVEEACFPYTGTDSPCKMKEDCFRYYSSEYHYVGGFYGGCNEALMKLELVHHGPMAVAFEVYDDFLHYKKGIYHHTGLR
Chain of recombinant human DPPI (Cathepsin C) (P53634 25-134): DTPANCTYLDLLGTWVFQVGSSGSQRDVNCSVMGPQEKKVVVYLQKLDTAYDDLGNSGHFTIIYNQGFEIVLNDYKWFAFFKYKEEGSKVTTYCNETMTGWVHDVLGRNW
Chain of recombinant human DPPI (Cathepsin C) (P53634 395-463): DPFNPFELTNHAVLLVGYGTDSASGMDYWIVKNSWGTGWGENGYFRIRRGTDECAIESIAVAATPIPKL
Protocol: Inhibition of Human DPPI (Cathepsin C)
The analysis of the data was performed by calculating the percentage of fluorescence in the presence of test compound in comparison to the fluorescence of the vehicle control after 20 subtracting the background fluorescence using the following formula: (RFU(sample)−RFU(background))*100/(RFU(control)−RFU(background))
Data from these calculations were used to generate IC50 values for inhibition of DPPI, respectively.

[3] = Determination of metabolic stability with human liver microsomes; type: in vitro ADME; conditions: pH 7.6; pooled human liver microsomes, 1 mg/ml protein, 1 μM compound, 37° C., NADPH; read-out: In vitro stability in human liver microsome incubations t1/2
Protocol: Determination of Metabolic Stability with Human Liver Microsomes
The metabolic degradation of the test compound is assayed at 37° C. with pooled human liver microsomes. The final incubation volume of 100 μl per time point contains TRIS buffer pH 7.6 (0.1 M), magnesium chloride (5 mM), microsomal protein (1 mg/ml) and the test compound at a final concentration of 1 μM. Following a short preincubation period at 37° C., the reactions are initiated by addition of beta-nicotinamide adenine dinucleotide phosphate, reduced form (NADPH, 1 mM) and terminated by transferring an aliquot into acetonitrile after different time points. Additionally, the NADPH-independent degradation is monitored in incubations without NADPH, terminated at the last time point. The [%] remaining test compound after NADPH independent incubation is reflected by the parameter c (control) (metabolic stability). The quenched incubations are pelleted by centrifugation (10′000 g, 5 min.) An aliquot of the supernatant is assayed by LC-MS/MS for the amount of parent compound.
The half-life (t1/2 INVITRO) is determined by the slope of the semilogarithmic plot of the concentration-time profile. The intrinsic clearance (CL_INTRINSIC) is calculated by considering the amount of protein in the incubation: CL_INTRINSIC [μl/min/mg protein]=(ln 2/(half-life [min]*protein content [mg/ml]))*1′000.

[4] = recombinant human DPPI, substrate Gly-Arg-AMC, pH 6.0, read-out: Inhibition of DPPI IC50

| Compound | IC50 [1] | IC50 [2, 4] | half-life at 1 μM [3] | IC50 ([2]; Table 14, compounds examined in X-ray crystallography, read-out: CatC IC50) |
| --- | --- | --- | --- | --- |
| N#C[C@H](Cc1ccc(-c2ccc3c(c2)C2(CCNCC2)CC3)cc1F)NC(=O)[C@H]1N[C@@H]2CC[C@H]1C2 [Example 2] | 6.8 nM | 0.6 nM | > 130 min |  |
| N#C[C@H](Cc1ccc(-c2ccc3c(c2)C2(CCNCC2)C(=O)N3)cc1F)NC(=O)[C@H]1N[C@@H]2CC[C@H]1C2 [Example 3] | 503 nM | 0.3 nM | > 130 min |  |
| CN1C(=O)C2(CCNCC2)c2cc(-c3ccc(C[C@@H](C#N)NC(=O)[C@H]4N[C@@H]5CC[C@H]4C5)c(F)c3)ccc21 [Example 4] | 91 nM | 0.4 nM | > 130 min |  |
| CN1CCC2(CC1)C(=O)N(C)c1ccc(-c3ccc(C[C@@H](C#N)NC(=O)[C@H]4N[C@@H]5CC[C@H]4C5)c(F)c3)cc12 [Example 5] | 2.3 nM | 0.6 nM | > 130 min |  |
| CN1CCC2(CC1)C(=O)Nc1ccc(-c3ccc(C[C@@H](C#N)NC(=O)[C@H]4N[C@@H]5CC[C@H]4C5)c(F)c3)cc12 [Example 6] | 22.2 nM | 0.2 nM | 110 min |  |
| N#C[C@H](Cc1ccc(-c2ccc3c(c2)C2(CCNCC2)OC3=O)cc1F)NC(=O)[C@H]1N[C@@H]2CC[C@H]1C2 [Example 7] | 34.9 nM | 0.5 nM | > 130 min |  |
| CN1CCC2(CC1)OC(=O)c1ccc(-c3ccc(C[C@@H](C#N)NC(=O)[C@H]4N[C@@H]5CC[C@H]4C5)c(F)c3)cc12 [Example 8] | 0.8 nM | 0.7 nM | 74 min |  |
| N#C[C@H](Cc1ccc(-c2ccc3c(c2)C2(CCNC2)OC3=O)cc1F)NC(=O)[C@H]1N[C@@H]2CC[C@H]1C2 (stereo partly shown) [Example 9] | 21.5 nM | 0.5 nM | > 130 min |  |
| CN1CCC2(C1)OC(=O)c1ccc(-c3ccc(C[C@@H](C#N)NC(=O)[C@H]4N[C@@H]5CC[C@H]4C5)c(F)c3)cc12 (stereo partly shown) [Example 10] | 1.4 nM | 0.6 nM | > 130 min |  |
| N#C[C@H](Cc1ccc(-c2ccc3c(c2)C2(CNC2)OC3=O)cc1F)NC(=O)[C@H]1N[C@@H]2CC[C@H]1C2 [Example 11] | 10.7 nM | 0.7 nM | > 130 min | 0.7 nM |
| CN1CC2(C1)OC(=O)c1ccc(-c3ccc(C[C@@H](C#N)NC(=O)[C@H]4N[C@@H]5CC[C@H]4C5)c(F)c3)cc12 [Example 12] | 1.2 nM | 0.5 nM | 46 min |  |
| N#C[C@H](Cc1ccc(-c2ccc3c(c2)C2(CCNCC2)OC3)cc1F)NC(=O)[C@H]1N[C@@H]2CC[C@H]1C2 [Example 13] | 16.7 nM | 0.6 nM | > 130 min |  |
